Results on one molecule are retold here after US7759313B2, “Induction method for cell differentiation” (Obschetstvo S Ogranichennoi Otvetstvennostiyu …, priority 2002, dated 2010).

Like-named read-outs stand apart in the source and are kept apart here.

Data set [1] is described as follows: Total leukocyte number in peripheral blood under Cyclophosphamide.
A short description of data set [2]: Peripheral blood leukocytes formula under Cyclophosphamide. In kind it is in vivo, mice. To be noted: day 3 post CPH. The source says: (§1) Two groups of mice are used.
The format of data set [3] is in vivo, mice.
Text: as §1

`O=P1(N(CCCl)CCCl)NCCCO1` (centres unmarked) [CPH, Cyclophosphamide]: the Total leukocyte number is reported as 4.38 ± 0.77 thousand in mm^3 in data set [1] (CPH 200 mg/kg, day 5); 10.50 ± 3.02 thousand in mm^3 in data set [1] (CPH 200 mg/kg, day 7); 6.44 ± 0.60 thousand in mm^3 in data set [1] (CPH 200 mg/kg, day 10); 12.20 ± 3.02 thousand in mm^3 in data set [1] (CPH 200 mg/kg, day 13); 12.20 ± 1.80 thousand in mm^3 in data set [1] (CPH 200 mg/kg, day 17); 11.86 ± 1.32 thousand in mm^3 in data set [1] (CPH 200 mg/kg, day 21). In addition, in data set [1] (single CPH 200 mg/kg (Dicarbamine group: 0.5 mg/kg daily 5 days before and 5 days after), day 3 post CPH), the Total leukocyte number came to 1.06 ± 0.44 thousand in mm^3. Besides, the Myelocytes is given as 0% in data set [2] (CPH 200 mg/kg (Dicarbamine group: 0.5 mg/kg 5 days prior and 5 days after)); 0 in mm^3 in data set [2]. Further, the Monocytes in data set [2] was 4.649%. The “Cellularity of bone marrow (number of cells)” value in data set [3] (CPH 200 mg/kg (Dicarbamine group: 0.5 mg/kg 5 days prior and 5 days after), day 3) was 8.2 ± 1.65 millions; in data set [3] (day 5 after CPH), 13.05 ± 2.75 millions; in data set [3] (day 7 after CPH), 25.22 ± 2.75 millions; in data set [3] (day 10 after CPH), 27.9 ± 2.75 millions; in data set [3] (day 13 after CPH), 30.15 ± 6.6 millions; in data set [3] (day 17 after CPH), 25.0 ± 3.16 millions. Besides, in data set [3] (day 21 after CPH), the “Cellularity of bone marrow (number of cells)” value is on record as 26.55 ± 4.53 millions.
